Among the data in patent publication US6797711B2, “Benzofuran derivatives and pharmaceutical compositions containing the same” (Pola Chemical Industries, Inc., priority 2000, dated 2004) are melting point values, retold here.

One may read the melting point as the temperature of the solid-liquid transition. In the case of `O=C(/C=C/c1ccccc1)N1CCN(CC(O)c2cc3ccccc3o2)CC1` (centres unmarked) [Compound 1, 1-(2-(benzofuran-2-yl)-2-hydroxy)ethyl-4-cinnamoylpiperazine], the melting point lay in the range of 126.5 to 128 °C.

Turning to `O=C(CC(c1ccccc1)c1ccccc1)N1CCN(CC(O)c2cc3ccccc3o2)CC1` (centres unmarked) [Compound 3, 1-(2-(benzofuran-2-yl)-2-hydroxy)ethyl-4-(3,3-diphenylpropionyl)piperazine], the melting point lay within 125.5 to 127.5 °C.

As for `O=C(CC(c1ccccc1)c1ccccc1)N1CCN(C(=O)c2cc3ccccc3o2)CC1` [Compound 4, 1-(benzofuran-2-yl)carbonyl-4-(3,3-diphenylpropionyl)piperazine], the melting point lay within 130.5 to 132 °C.

For the compound `O=C(CC(c1ccccc1)c1ccccc1)N1CCN(Cc2cc3ccccc3o2)CC1` [Compound 6, 1-(benzofuran-2-yl)methyl-4-(3,3-diphenylpropionyl)piperazine], the melting point was in the range of 120.5 to 122 °C.

Compound `O=C(CC(c1ccccc1)c1ccccc1)N1CCN(CCc2cc3ccccc3o2)CC1` [Compound 7, 1-(2-(benzofuran-2-yl)ethyl)-4-(3,3-diphenylpropionyl)piperazine] displayed a melting point of 123.3 to 124.1 °C.
